Test [1] has as its system primary human lung fibroblasts from IPF patients. As to the kind of experiment: Fibroblast to myofibroblast transformation of human lung fibroblasts. Format: cell-based. An excerpt: Nintedanib also attenuated the transformation of lung fibroblasts to myofibroblasts. Fibroblast proliferation, migration and transformation are fundamental processes in the common final path of several diseases resulting in lung fibrosis such as IPF but also SSc-ILD and RA-ILD.

Test [2] relates to dermal fibroblasts from patients with SSc. Briefly: Dermal fibroblasts from patients with SSc. Format: cell-based, human.
Test [3] deals with animal models of SSc and SSc-ILD. Briefly: Four animal models of SSc and SSc-ILD. In kind it is in vivo.
Another test relates to human lung fibroblasts. As to conditions: cited from earlier work.
The mark [4] stands for this setting: human lung fibroblasts from patients with IPF and control donors.

Results on 1 molecule are retold here after US20190275033A1 (Boehringer Ingelheim International GmbH, priority 2016, published 2019).

As for `COC(=O)c1ccc2c(c1)NC(=O)/C2=C(\Nc1ccc(N(C)C(=O)CN2CCN(C)CC2)cc1)c1ccccc1` [nintedanib, 3-Z-[1-(4-(N-((4-methyl-piperazin-1-yl)-methylcarbonyl)-N-methyl-amino)-anilino)-1-phenyl-methylene]-6-methoxycarbonyl-2-indolinone], the “transformation of lung fibroblasts to myofibroblasts” value in test [1] is reported as “attenuated”. Also, in test [2], the “expression of extracellular matrix markers” value is reported as “reduced”, the migration result is “inhibited”, the proliferation entry is recorded as “inhibited” and the transformation to myofibroblast result is recorded as “attenuated”. Moreover, in test [3] (an animal model of SSc), the “number of vascular smooth muscle cells” value is “reducing”, the occluded pulmonary vessels entry is reported as “reducing” and the pulmonary vascular remodelling result is reported as “effectively attenuated”. For the same molecule, in test [3] (in vivo), the Lung fibrosis entry is “effectively attenuated”; the “dermal microvascular endothelial cell apoptosis” value is given as “reduced”; the dermal thickening result is reported as “reduced”; the “extracellular matrix deposition in skin and lung” value is “reduced”. Further, in test [3] (in vivo), the “myofibroblast accumulation in skin and lung” value is “attenuated”; the skin fibrosis entry was “effectively attenuated”. Further, the “proliferation of human lung fibroblasts from patients with IPF” value in the test on human lung fibroblasts is recorded as “inhibited”. In addition, in the test on human lung fibroblasts (setting [4]), the FGF-2-induced proliferation entry was “inhibit” and the VEGF-induced proliferation result is recorded as “inhibit”. Also, in the test with human lung fibroblasts (in vitro), the “proliferation of normal human lung fibroblasts” value is recorded as “inhibit”.
